Data published in PubChem BioAssay (NCI).
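Method: 48-hour compound exposure of cells in 96-well plates, five concentrations, linear interpolation of endpoints. TGI is the concentration that stops growth completely.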

Experiments:
Assay in all cases: NCI-60 cell line screen, 48 h
[1] = tested on: CAKI-1 renal
[2] = tested on: HOP-92 NSCLC
[3] = tested on: HS 578T breast
[4] = tested on: K-562 leukemia
[5] = tested on: MCF7 breast
[6] = tested on: NCI-H23 lung
[7] = tested on: OVCAR-5 ovarian
[8] = tested on: SK-MEL-5 melanoma
[9] = tested on: SN12C renal
[10] = tested on: UACC-257 melanoma

| SMILES | TGI [1] [µM] | TGI [2] [µM] | TGI [3] [µM] | TGI [4] [µM] | TGI [5] [µM] | TGI [6] [µM] | TGI [7] [µM] | TGI [8] [µM] | TGI [9] [µM] | TGI [10] [µM] |
| --- | --- | --- | --- | --- | --- | --- | --- | --- | --- | --- |
| COc1cc(O)c2c(=O)c3c(C)cccc3n(C)c2c1 | > 10 | > 10 | > 10 | > 10 | > 10 | > 10 | > 10 | > 10 | > 10 | > 10 |
| CCOC(=O)c1sc2nc(SC)nc3c2c1NCN3c1ccc(F)c(F)c1 | > 100 | 83 | 30.8 | > 100 | > 100 | 75.3 | > 100 | > 100 | > 100 | > 100 |
